By Ki is commonly meant a dissociation constant, usually derived from enzyme kinetics or from competition with a known ligand.

The values that follow come from ChEMBL document CHEMBL1149926, “Synthesis of 7-substituted androstenediones by a 1,4-conjugate addition approach” (Bioorg Med Chem Lett, 1995).

The experiment has as its target T1, Aromatase (Homo sapiens, UniProt P11511).
T1 sequence (P11511 whole entry): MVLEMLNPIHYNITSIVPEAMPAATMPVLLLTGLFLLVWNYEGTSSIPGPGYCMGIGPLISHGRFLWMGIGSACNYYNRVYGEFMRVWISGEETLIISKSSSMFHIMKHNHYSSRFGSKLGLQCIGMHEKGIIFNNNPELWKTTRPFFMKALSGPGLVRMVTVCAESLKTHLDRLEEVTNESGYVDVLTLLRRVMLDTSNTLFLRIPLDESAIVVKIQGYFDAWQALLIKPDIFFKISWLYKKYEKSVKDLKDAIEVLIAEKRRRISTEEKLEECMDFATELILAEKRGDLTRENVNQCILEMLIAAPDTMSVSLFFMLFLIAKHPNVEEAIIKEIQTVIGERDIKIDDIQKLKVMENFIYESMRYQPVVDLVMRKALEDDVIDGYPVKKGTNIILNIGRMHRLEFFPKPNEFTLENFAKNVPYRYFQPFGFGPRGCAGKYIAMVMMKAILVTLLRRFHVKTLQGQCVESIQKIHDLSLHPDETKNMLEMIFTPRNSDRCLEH
The experiment in a line: Inhibition of aromatase cytochrome P450 19A1.
`C[C@]12CCC(=O)C=C1C[C@@H](CCc1ccccc1)[C@@H]1[C@@H]2CC[C@]2(C)C(=O)CC[C@@H]12` showed a Ki of 16.5 nM.
Turning to `C[C@]12CCC(=O)C=C1C[C@@H](Cc1ccccc1)[C@@H]1[C@@H]2CC[C@]2(C)C(=O)CC[C@@H]12`, the affinity corresponds to a Ki of 13.1 nM.
Compound `C[C@]12C=CC(=O)C=C1C[C@@H](Sc1ccc(N)cc1)[C@@H]1[C@@H]2CC[C@]2(C)C(=O)CC[C@@H]12` registered a Ki of 10 nM.
